Test: Solubility of olopatadine in PEG 6000 and/or PVP vehicles
Assay type: physicochemical
Details: Table 1 and FIG. 1

For `CN(C)CC/C=C1/c2ccccc2COc2ccc(CC(=O)O)cc21` [olopatadine], the “solubility of olopatadine relative to the concentration of PEG6000” value was “essentially linear”.
